The assay has as its target α5β1 integrin (Homo sapiens, UniProt P05556+P08648). As to the kind of experiment: IC50 for the selected compounds (assay not described).

In patent publication US20240409527A1, “INHIBITORS OF ALPHA-5 BETA-1 INTEGRIN AND USES THEREOF” (The Regents of the University of California, priority 2022, published 2024) one finds IC50 data, which are given here for two compounds.

As usually defined, the IC50 is the concentration that gives 50% inhibition. Read a high IC50 as a need for much substance.

Sequence of α5β1 integrin (P08648 42-894 limits assumed): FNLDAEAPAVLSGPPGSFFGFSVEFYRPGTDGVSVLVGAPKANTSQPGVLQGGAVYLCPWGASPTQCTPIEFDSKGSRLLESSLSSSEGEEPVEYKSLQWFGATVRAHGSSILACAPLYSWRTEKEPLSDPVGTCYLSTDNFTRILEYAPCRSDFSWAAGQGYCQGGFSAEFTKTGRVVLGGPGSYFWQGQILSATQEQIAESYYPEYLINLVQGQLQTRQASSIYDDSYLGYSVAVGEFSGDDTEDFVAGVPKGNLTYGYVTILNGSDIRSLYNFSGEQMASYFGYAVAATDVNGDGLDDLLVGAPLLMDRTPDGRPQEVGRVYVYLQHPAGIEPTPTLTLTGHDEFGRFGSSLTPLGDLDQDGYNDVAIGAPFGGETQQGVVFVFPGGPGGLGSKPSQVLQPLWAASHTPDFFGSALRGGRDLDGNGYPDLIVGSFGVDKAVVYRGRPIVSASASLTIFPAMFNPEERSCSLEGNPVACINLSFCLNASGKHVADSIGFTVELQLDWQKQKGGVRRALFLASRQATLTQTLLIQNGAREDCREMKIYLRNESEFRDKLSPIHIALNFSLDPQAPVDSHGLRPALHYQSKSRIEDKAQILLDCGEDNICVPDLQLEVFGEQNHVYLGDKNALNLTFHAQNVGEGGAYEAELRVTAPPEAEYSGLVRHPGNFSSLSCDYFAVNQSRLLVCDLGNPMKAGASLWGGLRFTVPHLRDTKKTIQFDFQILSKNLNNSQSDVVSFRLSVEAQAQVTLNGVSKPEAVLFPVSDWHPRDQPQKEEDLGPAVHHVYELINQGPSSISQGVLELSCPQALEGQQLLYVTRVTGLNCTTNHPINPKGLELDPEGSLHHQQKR
Sequence of α5β1 integrin (P05556 21-798): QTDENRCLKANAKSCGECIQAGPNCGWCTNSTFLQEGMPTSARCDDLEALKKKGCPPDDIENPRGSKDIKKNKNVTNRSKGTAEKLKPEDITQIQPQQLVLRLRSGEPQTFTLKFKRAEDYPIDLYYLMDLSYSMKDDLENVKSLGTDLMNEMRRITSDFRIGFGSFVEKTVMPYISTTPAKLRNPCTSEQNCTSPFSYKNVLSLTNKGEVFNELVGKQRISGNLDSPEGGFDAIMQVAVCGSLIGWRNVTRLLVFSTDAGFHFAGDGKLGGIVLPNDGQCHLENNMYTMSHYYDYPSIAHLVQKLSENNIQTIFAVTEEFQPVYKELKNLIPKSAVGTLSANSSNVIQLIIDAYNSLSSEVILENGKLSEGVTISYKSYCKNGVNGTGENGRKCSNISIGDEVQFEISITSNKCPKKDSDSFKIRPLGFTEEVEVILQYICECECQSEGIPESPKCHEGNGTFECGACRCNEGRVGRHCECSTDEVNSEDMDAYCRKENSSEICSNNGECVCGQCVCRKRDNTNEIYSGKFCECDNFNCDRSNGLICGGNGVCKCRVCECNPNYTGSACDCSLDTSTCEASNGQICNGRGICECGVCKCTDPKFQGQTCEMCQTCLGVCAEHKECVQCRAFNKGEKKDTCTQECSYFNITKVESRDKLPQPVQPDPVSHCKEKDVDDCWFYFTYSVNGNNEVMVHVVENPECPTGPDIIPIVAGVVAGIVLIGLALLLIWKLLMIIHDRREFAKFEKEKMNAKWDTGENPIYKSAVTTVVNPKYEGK

`O=C(CNC(=O)c1cncc(NC2=NCCCN2)c1)NC[C@H](NC(=O)c1c(Cl)cc(-c2ccccc2)cc1Cl)C(=O)O` [SU15210-00204-01, (S)-2-(3,5-dichlorobiphenyl-4-ylcarboxamido)-3-(2-(5-(1,4,5,6-tetrahydropyrimidin-2-ylamino)nicotinamido)acetamido)propanoic acid] returned a half-inhibitory concentration (IC50) of less than 1000 nM.

`O=C(CNC(=O)c1c[nH]c(=O)c(NC2=NCCCN2)c1)NC[C@H](NC(=O)c1c(Cl)cc(-c2ccccc2)cc1Cl)C(=O)O` [SU15210-00206-01, (S)-2-(3,5-dichlorobiphenyl-4-ylcarboxamido)-3-(2-(6-oxo-5-(1,4,5,6-tetrahydropyrimidin-2-ylamino)-1,6-dihydropyridine-3-carboxamido)acetamido)propanoic acid] registered a half-maximal inhibitory concentration (IC50) of less than 1000 nM.
